Measured values as given in BindingDB's records for doi:10.1021/jm070014g (2007).
pEC50: −log10 of the molar value.

Molecular target: T1, Protein Tat (Human immunodeficiency virus type 1 group M subtype B (isolate HXB2), UniProt P04608)
T1 sequence (P04608 whole entry): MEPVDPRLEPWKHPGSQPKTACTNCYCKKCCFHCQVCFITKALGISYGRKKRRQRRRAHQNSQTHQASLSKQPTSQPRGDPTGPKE
Assay: Inhibition of Tat-mediated transcription of viral promoter in 293 T cells transfected with HIV1 tat by luciferase reporter gene assay

Structure (SMILES) | pEC50
Cc1ccc(NCCCN)c([N+](=O)[O-])c1 | 5.00
CC(Cl)c1ccc(NCCCN)c([N+](=O)[O-])c1 (configuration not stated) | 6.00
